# How the values were obtained:
# [1] = system: human platelet-rich plasma; assay: Platelet aggregation inhibition after induction by ADP, arachidonic acid or collagen; assay type: cell-based; conditions: different concentrations
# Method: Platelet aggregation inhibition was evaluated after the induction of aggregation by ADP, arachidonic acid or collagen in human platelet-rich plasma [Bertele, V. et al. Science 1983, 220(4596): 517-9; Knöfler, R. et al. Thromb Res 1995, 77(1): 69-78]. […] Platelet function was additionally tested under rheological conditions in human whole blood using a platelet function test device, PFA-100 [Frossard, M. et al. Circulation 2004, 110(11): 1392-7; Hennekens, C.H. et al. Circulation 2004, 110(12): 1706-8]. An increase (26%-30%) in aggregation time in the presence of collagen-epinephrine was noted, indicating platelet aggregation-inhibitory activity for compounds in examples 1 to 12 at 1 µM concentration under rheological conditions.
# [2] = system: fed mice; assay: Blood glucose after i.p. glucose challenge, fed mice; assay type: in vivo
# Method: (§1) Male C57BL/6 mice weighing 25 ± 3 g were provided by Harlan. Space allocation for five animals was 29 x 18 x 13 cm. All animals were maintained in a controlled temperature (21-23 °C) and humidity (50-70%) environment on a 12-hour light/dark cycle for 7 days in the animal facilities. Free access to standard chow for mice and reverse osmosis water were given. All aspects of this work, including housing, experimentation and disposal of animals, were performed in general accordance with the Guide for the Care and Use of Laboratory Animals.
# (§2) Then, the blood glucose concentrations were measured at 15, 30, 60, 90, and 120 minutes after the glucose injection (Glucometer and Reactive Strips Accu-chek Aviva, Roche) [Zhang, W. et al. Pharmacol Res 2011, 63: 284-93]. Free access to food and water was maintained throughout the study. Under fasting conditions, mice were deprived of food 4 hours before and during the experiment and the experimental protocol was followed as detailed above.
# [3] = system: Syrian hamster embryo (SHE) cell, BALB/c 3T3, and CH310T1/2; assay: Cell transformation assays (CTAs), carcinogenic assessment; assay type: cell-based; conditions: CTA assays, compared with structurally related compounds with carcinogenic potential
# Text: Carcinogenic potential may arise from a direct genotoxic effect or nongenotoxic effects. Epigenetic factors may contribute to tumor cell proliferation by routes other than a direct interaction with DNA. In that case, xenobiotics may act as cancer promoters in species other than those employed in preclinical drug development. Cell transformation assays (CTAs), including the main in vitro CTAs --the Syrian hamster embryo (SHE) cell, BALB/c 3T3, and CH310T1/2 assays-- are experimental tools reviewed by the OECD [Environment, Health and Safety Publications, Series on Testing and Assessment nº 31. Detailed review paper on cell transformation assays for detection of chemical carcinogens. November 28, 2006].
# [4] = Maximum tolerated dose after single oral administration; conditions: mouse, in vivo, mice, observed up to 72 hours
# Method: The maximum tolerated dose (MTD) was assessed in mice after single oral administration of high doses of Example 1 of 1 g/kg, 500 mg/kg, and 100 mg/kg, and the development of acute toxic symptoms (mortality, convulsions, tremors, muscle relaxation, sedation, etc.) and autonomic effects (diarrhea, salivation, lacrimation, vasodilation, piloerection, etc.) was observed during the first hour. The animals were then observed again for mortality at 3, 24, 48, and 72 hours. The mice were sacrificed if they lost more than 20% of their body weight or if there were other signs of significant toxicity. The MTD obtained for Example 1 in the above experimental conditions was 1 g/kg.
# [5] = system: streptozotocin-induced diabetic mice; assay: Blood glucose in mice with streptozotocin-induced diabetes; assay type: in vivo; conditions: for reduction in blood glucose concentrations when compared to basal values: range over the experimental time points
# Method: as §1
# In mice with streptozotocin-induced diabetes [Tokunaga, H. et al. Eur J Pharmacol 1983, 87(2-3): 237-43], diabetes was induced with a […] i.p. injection of streptozotocin (Sigma) 50 mg/kg body weight, freshly dissolved in NaCl 0.9% during 5 consecutive days. After 4 weeks, those mice (80%) with basal glucose concentrations under fasting (4 hours) conditions above 220 mg/dL were included in the assay. The test substance, positive and negative controls were administered by the p.o. route 30 minutes before measurement of the blood glucose concentrations at 0, 15, 30, 60, 90, and 120 minutes. Free access to water was maintained throughout the study.
# [6] = system: fasted mice; assay: Blood glucose after i.p. glucose challenge, fasted mice; assay type: in vivo; conditions: oral
# Method: as §1, §2
Compound,inhibition of platelet aggregation [1],"decrease in blood glucose concentrations ([2]; fed mice, oral, after i.p. glucose challenge (1 g/kg))","reduction in blood glucose concentrations when compared to basal values ([2]; fed, single oral dose 3 mg/kg, 90 minutes after glucose challenge)","reduction in blood glucose concentrations when compared to basal values ([2]; fed, single oral dose 3 mg/kg, 120 minutes after glucose challenge)","reduction in blood glucose concentrations when compared to basal values ([2]; fed, single oral dose 30 mg/kg, 90 minutes after glucose challenge)","reduction in blood glucose concentrations when compared to basal values ([2]; fed, single oral dose 30 mg/kg, 120 minutes after glucose challenge)","reduction in blood glucose concentrations when compared to basal values ([2]; fed, single oral dose 300 mg/kg, 90 minutes after glucose challenge)","reduction in blood glucose concentrations when compared to basal values ([2]; fed, single oral dose 300 mg/kg, 120 minutes after glucose challenge)",carcinogenic potential [3],MTD at 72 h [4],hypoglycemic effect ([5]; 0.1 mg/kg),reduction in blood glucose concentrations when compared to basal values ([5]; 3 mg/kg oral),reduction in blood glucose concentrations when compared to basal values ([5]; 30 mg/kg oral),reduction in blood glucose concentrations when compared to basal values ([5]; 300 mg/kg oral),"decrease in blood glucose concentrations ([5]; mice with streptozotocin-induced diabetes, oral)","decrease in blood glucose concentrations ([6]; fasted mice, after i.p. glucose challenge (1 g/kg))","hypoglycemic activity ([6]; fasted, 0.3 mg/kg)","decrease in blood glucose concentrations ([2]; fed, positive control, dose not given, 90 minutes after glucose challenge)","decrease in blood glucose concentrations ([2]; fed, positive control, dose not given, 120 minutes after glucose challenge)"
"CCc1ccc(Cc2ccc3c(c2)[C@@H]2O[C@H](CO)[C@@H](O)[C@H](O)[C@H]2OC3=O)cc1 [Example 1, (2R,3S,4S,4aR,10bS)-9-(4-Ethylbenzyl)-3,4-dihydroxy-2-(hydroxymethyl)-3,4,4a,10b-tetrahydropyrano[3,2-c][2]benzopyran-6(2H)-one]",inhibition of platelet aggregation,decrease in blood glucose concentrations,12.01%,9.63%,6.04%,4.71%,2.52%,10.2%,no carcinogenic potential,1000 mg/kg,No relevant hypoglycemic effect,7-22%,7-26%,18-42%,decrease in blood glucose concentrations,decrease in blood glucose concentrations,hypoglycemic activity,,
"CCCCNC(=O)NS(=O)(=O)c1ccc(C)cc1 [Tolbutamide, reference compound]",,,,,,,,,,,,,,,,,,7.76%,3.22%

# From patent EP2573088A1, “Pyrano[3,2-c]benzopyran-6(2h)-one derivatives and uses thereof” (Prous Institute for Biomedical Research, S.A., priority 2011, dated 2013)
